In the supplement of paper PMC10307832:

Legend:
Test in all cases: relative viability (nuclei count vs DMSO), 5 days (fraction); higher = more cells survive
[1] = compound: O=C(CCCCCCC(=O)Nc1ccccc1)NO [Vorinostat]
In short: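 Lung cancer cell lines in 1536-well plates were exposed by pinning to five library-drug doses (not always all listed) √10 apart, following an overnight hold at 37 °C. MetaXpress counted Hoechst-stained nuclei from 4× images taken after 5 days without medium change. Viability is the median ratio of treated-well to vehicle-well nuclei across plates. Plates required control CV below 25% and at least one doubling.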

[2] = compound: O=C(CCCCCCC(=O)Nc1ccccc1)NO [Vorinostat] + Cc1nc(Nc2ncc(C(=O)Nc3c(C)cccc3Cl)s2)cc(N2CCN(CCO)CC2)n1 [Dasatinib] (partner 0.075 µM)
In short: (§1)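 A single step with final 0.05% Triton X-100, 1% formaldehyde and 1 ug/ml Hoechst fixed the cells and stained nuclei 5 days after treatment. Lung cancer cell lines in 1536-well plates had been treated by pin tool the day after seeding with one drug alone or a fixed anchor-drug dose plus five library-drug doses (not always all listed) in √10 steps, and nuclei were counted on 4× images. Relative viability is the ratio of nuclei in treated wells to nuclei in vehicle wells, taken as the median of duplicate plates.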

[3] = compound: O=C(CCCCCCC(=O)Nc1ccccc1)NO [Vorinostat] + C[C@]1(O)C[C@@H](c2nc(-c3ccc4ccc(-c5ccccc5)nc4c3)c3c(N)nccn32)C1 [Linsitinib] (partner 1 µM)
In short: as §1

[4] = compound: O=C(CCCCCCC(=O)Nc1ccccc1)NO [Vorinostat] + N=C(N)NC(=N)NCCc1ccccc1 [Phenformin] (partner 250 µM)
In short: as §1

Cell Line | relative viability ([1]; 0.253 µM) | relative viability ([1]; 0.8 µM) | relative viability ([1]; 1 µM, anchor plate) | relative viability ([1]; 2.53 µM) | relative viability ([1]; 8 µM) | relative viability ([2]; first compound 0.253 µM) | relative viability ([2]; first compound 0.8 µM) | relative viability ([2]; first compound 2.53 µM) | relative viability ([2]; first compound 8 µM) | relative viability ([3]; first compound 0.253 µM) | relative viability ([3]; first compound 0.8 µM) | relative viability ([3]; first compound 2.53 µM) | relative viability ([3]; first compound 8 µM) | relative viability ([4]; first compound 0.253 µM) | relative viability ([4]; first compound 0.8 µM) | relative viability ([4]; first compound 2.53 µM) | relative viability ([4]; first compound 8 µM)
201T | 1.07 | 0.848 | 0.946 | 0.855 | 0.324 | 0.578 | 0.503 | 0.381 | 0.221 | 1.04 | 0.932 | 0.825 | 0.363 | 0.478 | 0.446 | 0.406 | 0.236
A549 | 1.05 | 0.848 |  | 0.337 | 0.0442 |  |  |  |  | 0.673 | 0.651 | 0.194 | 0.0382 | 0.17 | 0.168 | 0.0474 | 0.0242
A-427 | 1.15 | 0.972 | 0.862 | 0.517 | 0.176 | 0.823 | 0.565 | 0.332 | 0.133 | 1.11 | 1.08 | 0.875 | 0.17 | 0.389 | 0.396 | 0.229 | 0.139
BEN | 1.04 | 0.678 | 0.597 | 0.248 | 0.0942 | 0.306 | 0.233 | 0.157 | 0.06 | 0.985 | 0.543 | 0.156 | 0.0466 | 0.297 | 0.215 | 0.146 | 0.0911
CAL-12T | 1.13 | 1.09 | 0.807 | 0.537 | 0.137 | 0.481 | 0.471 | 0.269 | 0.0806 | 0.923 | 0.759 | 0.563 | 0.147 | 0.685 | 0.562 | 0.312 | 0.0876
COR-L23 | 1.09 | 0.763 | 0.426 | 0.18 | 0.0822 | 0.501 | 0.291 | 0.0778 | 0.0572 | 0.899 | 0.468 | 0.0916 | 0.0663 | 0.368 | 0.322 | 0.107 | 0.0712
COR-L 105 | 1.42 | 0.858 | 0.868 | 0.501 | 0.237 | 0.377 | 0.394 | 0.259 | 0.196 | 1.1 | 1.16 | 0.394 | 0.222 | 0.609 | 0.54 | 0.199 | 0.234
ChaGo-K-1 | 1.09 | 0.858 | 0.759 | 0.761 | 0.343 | 0.656 | 0.568 | 0.444 | 0.246 |  |  |  |  | 0.551 | 0.538 | 0.45 | 0.183
EKVX | 1.09 | 1.01 | 0.77 | 0.688 | 0.175 | 0.535 | 0.528 | 0.236 | 0.179 | 1.14 | 1.04 | 0.515 | 0.141 | 0.228 | 0.238 | 0.225 | 0.134
EMC-BAC-2 | 0.92 | 0.752 | 0.493 | 0.363 | 0.176 | 0.311 | 0.204 | 0.169 | 0.108 | 0.977 | 0.866 | 0.47 | 0.134 | 0.523 | 0.473 | 0.248 | 0.163
EPLC-272H | 0.976 | 0.767 | 0.533 | 0.373 | 0.157 | 0.428 | 0.494 | 0.151 | 0.0935 | 1.17 | 1.13 | 0.361 | 0.156 | 0.321 | 0.332 | 0.104 | 0.084
H3255 | 1.02 | 1.13 | 0.791 | 0.573 | 0.286 | 0.396 | 0.342 | 0.309 | 0.301 | 1.01 | 0.941 | 0.589 | 0.247 | 0.33 | 0.302 | 0.323 | 0.262
HARA | 1.03 | 0.593 | 0.561 | 0.434 | 0.121 | 0.311 | 0.238 | 0.18 | 0.0565 | 1.13 | 0.948 | 0.254 | 0.101 | 0.443 | 0.364 | 0.231 | 0.0679
HCC-15 | 1.16 | 0.909 | 0.885 | 0.655 | 0.145 | 0.748 | 0.589 | 0.225 | 0.06 | 0.87 | 0.917 | 0.514 | 0.0962 | 0.609 | 0.473 | 0.22 | 0.0895
HCC-44 | 0.995 | 0.91 | 1.09 | 0.654 | 0.161 |  |  |  |  | 0.727 | 0.621 | 0.167 | 0.103 | 0.147 | 0.108 | 0.0733 | 0.0646
HCC-78 | 0.963 | 0.674 | 0.468 | 0.3 | 0.221 | 0.371 | 0.398 | 0.211 | 0.2 | 0.547 | 0.238 | 0.135 | 0.107 | 0.719 | 0.58 | 0.292 | 0.22
HCC-366 | 1.01 | 0.956 | 0.371 | 0.524 | 0.045 | 0.805 | 0.426 | 0.102 | 0.0346 | 0.637 | 0.545 | 0.0527 | 0.0206 | 0.689 | 0.605 | 0.338 | 0.0385
HCC-827 | 1.15 | 1.12 | 0.882 | 0.934 | 0.416 | 0.299 | 0.334 | 0.382 | 0.314 | 1.01 | 1.04 | 0.837 | 0.21 | 0.455 | 0.521 | 0.453 | 0.239
HOP-62 | 1.2 | 0.882 | 0.679 | 0.528 | 0.113 | 0.888 | 0.501 | 0.225 | 0.0813 | 1.17 | 0.769 | 0.528 | 0.0603 | 0.815 | 0.592 | 0.319 | 0.114
LC-2-ad | 0.989 | 0.722 | 0.691 | 0.228 | 0.155 | 0.585 | 0.235 | 0.127 | 0.124 | 0.868 | 0.606 | 0.13 | 0.136 | 0.568 | 0.461 | 0.221 | 0.133
